Relative viability data for seven cell lines are collected here from the supplement of paper PMC10307832.

What all share (test): relative viability (nuclei count vs DMSO), 5 days (fraction); higher = more cells survive
Compound in assay [1]: CN(c1ncccc1CNc1nc(Nc2ccc3c(c2)CC(=O)N3)ncc1C(F)(F)F)S(C)(=O)=O + CS(=O)(=O)N1CCN(Cc2cc3nc(-c4cccc5[nH]ncc45)nc(N4CCOCC4)c3s2)CC1 [Pictilisib] (partner 1 µM)
Put shortly:
(§1)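 Five library-drug doses in √10 steps were combined with a fixed anchor-drug dose, or a single drug was given alone, by pin tool to lung cancer cell lines in 1536-well plates the day after seeding. Nuclei were stained and counted after 5 days. Relative viability is the nuclei count in treated wells over that in vehicle wells, taken as the median of duplicate plates.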

Compound in assay [2]: CN(c1ncccc1CNc1nc(Nc2ccc3c(c2)CC(=O)N3)ncc1C(F)(F)F)S(C)(=O)=O + Nc1ncn([C@H]2C[C@H](O)[C@@H](CO)O2)c(=O)n1 [Decitabine] (partner 2 µM)
Put shortly:
as §1

Compound in assay [3]: CN(c1ncccc1CNc1nc(Nc2ccc3c(c2)CC(=O)N3)ncc1C(F)(F)F)S(C)(=O)=O + N=C(N)NC(=N)NCCc1ccccc1 [Phenformin] (partner 250 µM)
Put shortly:
as §1

Compound in assay [4]: CN(c1ncccc1CNc1nc(Nc2ccc3c(c2)CC(=O)N3)ncc1C(F)(F)F)S(C)(=O)=O + CC(=O)c1c(C)c2cnc(Nc3ccc(N4CCNCC4)cn3)nc2n(C2CCCC2)c1=O [Palbociclib] (partner 0.5 µM)
Put shortly: as §1

Take NCI-H1792: the relative viability was 0.263 in assay [1] (first compound 0.01 µM); 0.281 in assay [1] (first compound 0.03162 µM); 0.323 in assay [1] (first compound 0.1 µM); 0.306 in assay [1] (first compound 0.3162 µM); 0.332 in assay [1] (first compound 1 µM); 0.469 in assay [2] (first compound 0.01 µM). Moreover, the relative viability turned out to be 0.586 in assay [2] (first compound 0.03162 µM); 0.523 in assay [2] (first compound 0.1 µM); 0.606 in assay [2] (first compound 0.3162 µM); 0.586 in assay [2] (first compound 1 µM); 0.258 in assay [3] (first compound 0.01 µM); 0.297 in assay [3] (first compound 0.03162 µM). Besides, the relative viability in assay [3] (first compound 0.3162 µM) was 0.281; in assay [3] (first compound 1 µM), 0.489; in assay [4] (first compound 0.01 µM) it was 0.627; in assay [4] (first compound 0.03162 µM) it was 0.783; in assay [4] (first compound 0.1 µM) it was 0.63; in assay [4] (first compound 0.3162 µM), 0.637. Moreover, the relative viability in assay [4] (first compound 1 µM) turned out to be 0.602.
Turning to NCI-H2023, the relative viability in assay [1] (first compound 0.01 µM) was 0.265; in assay [1] (first compound 0.03162 µM), 0.329; in assay [1] (first compound 0.1 µM) it was 0.199; in assay [1] (first compound 0.3162 µM), 0.225; in assay [1] (first compound 1 µM), 0.2; in assay [2] (first compound 0.01 µM), 0.23. In addition, the relative viability was 0.259 in assay [2] (first compound 0.03162 µM); 0.218 in assay [2] (first compound 0.1 µM); 0.234 in assay [2] (first compound 0.3162 µM); 0.202 in assay [2] (first compound 1 µM); 0.451 in assay [3] (first compound 0.01 µM); 0.45 in assay [3] (first compound 0.03162 µM). Further, the relative viability in assay [3] (first compound 0.1 µM) turned out to be 0.416; in assay [3] (first compound 0.3162 µM) it was 0.314; in assay [3] (first compound 1 µM) it was 0.408; in assay [4] (first compound 0.01 µM), 0.382; in assay [4] (first compound 0.03162 µM), 0.405; in assay [4] (first compound 0.1 µM) it was 0.376. The relative viability came to 0.339 in assay [4] (first compound 0.3162 µM) and 0.229 in assay [4] (first compound 1 µM).
Take COR-L 105: the relative viability is 0.435 in assay [1] (first compound 0.01 µM); 0.395 in assay [1] (first compound 0.03162 µM); 0.383 in assay [1] (first compound 0.1 µM); 0.427 in assay [1] (first compound 0.3162 µM); 0.426 in assay [1] (first compound 1 µM); 0.762 in assay [2] (first compound 0.01 µM). Further, the relative viability in assay [2] (first compound 0.03162 µM) stood at 0.68; in assay [2] (first compound 0.1 µM), 0.728; in assay [2] (first compound 0.3162 µM) it was 0.733; in assay [2] (first compound 1 µM), 0.697; in assay [3] (first compound 0.01 µM), 0.46; in assay [3] (first compound 0.03162 µM), 0.493. The relative viability in assay [3] (first compound 0.1 µM) stood at 0.45; in assay [3] (first compound 0.3162 µM), 0.418; in assay [3] (first compound 1 µM), 0.492; in assay [4] (first compound 0.01 µM), 0.426; in assay [4] (first compound 0.03162 µM), 0.411; in assay [4] (first compound 0.1 µM), 0.41. The relative viability was determined as 0.427 in assay [4] (first compound 0.3162 µM) and 0.376 in assay [4] (first compound 1 µM).
For the cell line NCI-H1734, the relative viability in assay [1] (first compound 0.01 µM) was 0.418; in assay [1] (first compound 0.03162 µM), 0.555; in assay [1] (first compound 0.1 µM), 0.454; in assay [1] (first compound 0.3162 µM), 0.468; in assay [1] (first compound 1 µM), 0.475; in assay [2] (first compound 0.01 µM) it was 0.473. The relative viability in assay [2] (first compound 0.03162 µM) stood at 0.535; in assay [2] (first compound 0.1 µM), 0.571; in assay [2] (first compound 0.3162 µM), 0.524; in assay [2] (first compound 1 µM) it was 0.55; in assay [3] (first compound 0.01 µM), 0.395; in assay [3] (first compound 0.03162 µM), 0.395. Besides, the relative viability is 0.375 in assay [3] (first compound 0.1 µM); 0.4 in assay [3] (first compound 0.3162 µM); 0.415 in assay [3] (first compound 1 µM); 0.35 in assay [4] (first compound 0.01 µM); 0.327 in assay [4] (first compound 0.03162 µM); 0.345 in assay [4] (first compound 0.1 µM). Besides, the relative viability came out at 0.348 in assay [4] (first compound 0.3162 µM) and 0.304 in assay [4] (first compound 1 µM).
For the cell line NCI-H3122, the relative viability came to 0.599 in assay [1] (first compound 0.01 µM); 0.673 in assay [1] (first compound 0.03162 µM); 0.627 in assay [1] (first compound 0.1 µM); 0.572 in assay [1] (first compound 0.3162 µM); 0.584 in assay [1] (first compound 1 µM); 0.445 in assay [2] (first compound 0.01 µM). Moreover, the relative viability in assay [2] (first compound 0.03162 µM) turned out to be 0.423; in assay [2] (first compound 0.1 µM), 0.395; in assay [2] (first compound 0.3162 µM), 0.429; in assay [2] (first compound 1 µM) it was 0.403; in assay [3] (first compound 0.01 µM), 0.389; in assay [3] (first compound 0.03162 µM), 0.373. Further, the relative viability in assay [3] (first compound 0.1 µM) turned out to be 0.36; in assay [3] (first compound 0.3162 µM), 0.317; in assay [3] (first compound 1 µM) it was 0.354; in assay [4] (first compound 0.01 µM), 0.204; in assay [4] (first compound 0.03162 µM), 0.188; in assay [4] (first compound 0.1 µM), 0.155. Also, the results for the relative viability in assay [4] (first compound 0.3162 µM) and in assay [4] (first compound 1 µM) were 0.202 and 0.149, respectively.
On to HCC-78, for which the relative viability in assay [1] (first compound 0.01 µM) was 0.228; in assay [1] (first compound 0.03162 µM), 0.167; in assay [1] (first compound 0.1 µM), 0.216; in assay [1] (first compound 0.3162 µM), 0.188; in assay [1] (first compound 1 µM), 0.165; in assay [2] (first compound 0.01 µM) it was 0.755. Also, the relative viability in assay [2] (first compound 0.03162 µM) is 0.699; in assay [2] (first compound 0.1 µM), 0.719; in assay [2] (first compound 0.3162 µM), 0.636; in assay [2] (first compound 1 µM), 0.697; in assay [3] (first compound 0.01 µM) it was 0.67; in assay [3] (first compound 0.03162 µM) it was 0.662. For the same cell line, the relative viability in assay [3] (first compound 0.1 µM) worked out at 0.563; in assay [3] (first compound 0.3162 µM), 0.566; in assay [3] (first compound 1 µM) it was 0.573; in assay [4] (first compound 0.01 µM), 0.419; in assay [4] (first compound 0.03162 µM), 0.46; in assay [4] (first compound 0.1 µM), 0.462. Besides, the relative viability is 0.487 in assay [4] (first compound 0.3162 µM) and 0.408 in assay [4] (first compound 1 µM).
Consider NCI-H2085, for which the relative viability in assay [1] (first compound 0.01 µM) worked out at 0.449; in assay [1] (first compound 0.03162 µM) it was 0.49; in assay [1] (first compound 0.1 µM), 0.624; in assay [1] (first compound 0.3162 µM) it was 0.469; in assay [1] (first compound 1 µM) it was 0.515; in assay [2] (first compound 0.01 µM), 0.545. The relative viability in assay [2] (first compound 0.03162 µM) was determined as 0.577; in assay [2] (first compound 0.1 µM), 0.547; in assay [2] (first compound 0.3162 µM), 0.548; in assay [2] (first compound 1 µM), 0.522; in assay [3] (first compound 0.01 µM), 0.743; in assay [3] (first compound 0.03162 µM), 0.781. Further, the relative viability in assay [3] (first compound 0.1 µM) was 0.644; in assay [3] (first compound 0.3162 µM) it was 0.775; in assay [3] (first compound 1 µM), 0.627; in assay [4] (first compound 0.01 µM) it was 0.444; in assay [4] (first compound 0.03162 µM), 0.467; in assay [4] (first compound 0.1 µM), 0.443. The values for the relative viability in assay [4] (first compound 0.3162 µM) and in assay [4] (first compound 1 µM) were 0.462 and 0.401, respectively.
